Measured values reported in US10533228B2, “3.beta-hydroxysteroid dehydrogenase in steroid dependent disease” (THE CLEVELAND CLINIC FOUNDATION, priority 2013, dated 2020).

Assays:
3βHSD1(367N) = target: T1, 3βHSD1(367N) (Homo sapiens, UniProt P14060, T367N); experiment: Enzyme kinetics of DHEA metabolism, recombinant enzyme in yeast microsomes; format: biochemical; conditions: Michaelis-Menten plot
T1 construct: made in house; host or cells: Saccharomyces cerevisiae W303B (microsomes)
T1 sequence (P14060 1-373 T367N): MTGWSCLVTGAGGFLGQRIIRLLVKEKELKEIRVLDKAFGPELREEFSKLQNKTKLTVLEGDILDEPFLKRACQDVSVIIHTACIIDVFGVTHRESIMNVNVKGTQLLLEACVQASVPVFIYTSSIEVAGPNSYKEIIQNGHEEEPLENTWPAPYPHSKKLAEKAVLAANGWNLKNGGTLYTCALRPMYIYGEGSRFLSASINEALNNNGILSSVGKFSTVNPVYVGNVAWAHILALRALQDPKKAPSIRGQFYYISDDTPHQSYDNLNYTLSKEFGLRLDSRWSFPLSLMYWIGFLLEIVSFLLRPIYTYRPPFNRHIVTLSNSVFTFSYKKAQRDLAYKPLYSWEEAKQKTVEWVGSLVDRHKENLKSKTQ
Method: (§1) Recombinant human 3βHSD1 was expressed in S cerevisciae strain W303B using yeast vector V10-3βHSD1 for wild-type and 367T proteins, and microsomes were prepared as described. Li et al., 2012. Incubations containing [^3H]-DHEA (0.5-40 μM, 100,000 cpm) and 25 μg microsomal protein in 0.25 ml of 50 mM potassium phosphate (pH 7.4) were pre-incubated at 37° C. for 1 min before initiating the reaction with NAD (0.1 mM). After 20 min at 37° C., the steroids were extracted with 1 ml dichloromethane, concentrated, and resolved on an Agilent 1260 HPLC equipped with a Kinetex 2.1×100 mm, 2.6 μm C18 reverse-phase column (Phenomenex, Torrance, Calif.) using methanol-water gradients at 0.4 ml/min. The column effluent was analyzed with a β-RAM4 (LabLogic) in-line scintillation counter and Bio-SafeII cocktail (Research Products International). Means of triplicate determinations were plotted as v versus [S], and kinetic constants Km and Vmax were obtained by fitting the data to the Michaelis-Menten equation using Origin version 7.5.

3βHSD1(367T) = target: T2, 3βHSD1(367T) (Homo sapiens, UniProt P14060); experiment: as above; format: biochemical; conditions: Michaelis-Menten plot
T2 construct: made in house; host or cells: Saccharomyces cerevisiae W303B (microsomes)
T2 sequence (P14060 2-373): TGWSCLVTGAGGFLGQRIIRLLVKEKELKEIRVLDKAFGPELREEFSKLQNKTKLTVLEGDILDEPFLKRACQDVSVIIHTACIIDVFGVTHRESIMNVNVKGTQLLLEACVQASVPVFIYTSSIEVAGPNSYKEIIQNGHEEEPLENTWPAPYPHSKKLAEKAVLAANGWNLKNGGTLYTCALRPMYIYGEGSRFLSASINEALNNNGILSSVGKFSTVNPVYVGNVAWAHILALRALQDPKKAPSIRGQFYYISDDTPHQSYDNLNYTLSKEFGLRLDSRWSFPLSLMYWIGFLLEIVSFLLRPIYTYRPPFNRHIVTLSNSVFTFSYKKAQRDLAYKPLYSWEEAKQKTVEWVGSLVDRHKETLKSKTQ
Method: as §1

[1] = system: PSA and TMPRSS2 expression; experiment: AR-regulated gene expression by qPCR in LNCaP; format: cell-based, human; conditions: qPCR normalized to RPLP0 and vehicle
Method: (§2) Gene expression. To accurately quantitate each gene transcript, qPCR was performed as previously described. Chang et al., 2011. Briefly, the iTaq SYBR Green Supermix with ROX kit (Bio-Rad, Hercules, Calif.) was applied for the thermocycling reaction in an ABI-7500 Real-Time PCR machine (Applied Biosystems, Foster City, Calif.). Total RNA (1 μg) collected by RNeasy kit (QIAGEN) was used in a RT reaction with the iScript cDNA synthesis kit (Bio-Rad). The qPCR analysis was carried out in triplicate with the following primer sets: HSD3B1 (Forward: 5′-[…]-3′ (SEQ ID NO: 11); Reverse: 5′-[…]-3′ (SEQ ID NO: 12)), PSA (Forward: 5′-[…]-3′ (SEQ ID NO: 13); Reverse: 5′-[…]-3′ (SEQ ID NO: 14)), TMPRSS2 (Forward: 5′-[…]-3′ (SEQ ID NO: 15); Reverse: 5′-[…]-3′ (SEQ ID NO: 16)), the housekeeping gene large ribosomal protein P0 (RPLP0) (Forward: 5′-CGAGGGCACCTGGAAAAC-3′ (SEQ ID NO: 17); Reverse: 5′-CACATTCCCCCGGATATGA-3′ (SEQ ID NO: 18)) and GAPDH (Forward: 5′-[…]-3′ (SEQ ID NO: 19); Reverse: 5′-[…]-3′ (SEQ ID NO: 20)). Each mRNA transcript was quantitated by normalizing the sample values to RPLP0 or GAPDH and to non-silencing control cells (for knockdown) or to vehicle treated cells (for steroid treated cells). All gene expression studies were repeated in independent experiments.

[2] = system: PSA and TMPRSS2 expression; experiment: AR-regulated gene expression by qPCR in LAPC4; format: cell-based, human; conditions: LAPC4, qPCR normalized to RPLP0 and vehicle
Method: as §2

LAPC4 cells = experiment: Steroid metabolism (flux from [3H]-DHEA to AD), HPLC; format: cell-based, human; conditions: LAPC4, 100 nM, after 48 hours
Method: (§3) Steroid metabolism experiments were performed 12 hours after seeding cells by treatment with 1 mL serum-free medium containing [^3H]-labeled DHEA (100 nM, 300,000-600,000 cpm; PerkinElmer). Aliquots of medium were collected for up to 48 hours, treated with β-glucuronidase (1000 units; Sigma-Aldrich) at 65° C. for 4 hours. Deconjugated steroids were extracted, evaporated under nitrogen stream, dissolved in 50% methanol, injected on a Breeze 1525 system equipped with model 717 plus autoinjector (Waters Corp.) and steroid metabolites were separated on a Luna 150×3 mm, […] C18 reverse-phase column (Phenomenex). The column effluent was mixed with Liquiscint scintillation cocktail (National Diagnostics) and analyzed by a β-RAM model 3 in-line radioactivity detector (IN/US Systems). Steroid metabolism experiments with transient enzyme expression were performed with pCMV5-HSD3B1 (367N and 367T) constructs 24 hours after transfection and 12 hours after treatment with 25 μM cycloheximide (CHX). […]
(§4) Cells (300,000-400,000 cells per well) were plated in 12-well plates coated with poly-L-ornithine. […] The column effluent was mixed with Liquiscint scintillation cocktail (National Diagnostics, Atlanta, Ga.) and analyzed by a β-RAM model 3 in-line radioactivity detector (LabLogic, Brandon, Fla.). […]

LNCaP cells = experiment: as above; format: cell-based, human; conditions: 100 nM, after 48 hours
Method: as §3, §4

3βHSD = conditions: cited from earlier work

| Structure (SMILES) | Km (3βHSD1(367N)) [µM] | Km (3βHSD1(367T)) [µM] | PSA and TMPRSS2 expression [1] | PSA and TMPRSS2 expression [2] | [3H]-DHEA metabolized by 3βHSD enzymatic activity to AD (LAPC4 cells) | [3H]-DHEA metabolized by 3βHSD enzymatic activity to AD (LNCaP cells) [%] | inhibition of 3βHSD (3βHSD) |
| --- | --- | --- | --- | --- | --- | --- | --- |
| C[C@]12CC[C@H](O)CC1=CC[C@@H]1[C@@H]2CC[C@]2(C)C(=O)CC[C@@H]12 [DHEA, dehydroepiandrosterone] | 32 | 7 | induces PSA and TMPRSS2 expression in a concentration-dependent manner | absence of DHEA concentration-dependent increases in AR-regulated PSA and TMPRSS2 | approximately 10% | > 90 |  |
| CC(=O)O[C@H]1CC[C@@]2(C)C(=CC[C@@H]3[C@@H]2CC[C@]2(C)C(c4cccnc4)=CC[C@@H]32)C1 [abiraterone, abiraterone acetate] |  |  |  |  |  |  | weakly inhibits |
